Columns and labels:
FIH = FIH (Homo sapiens, UniProt Q9NWT6); assay: Time-dependent cellular thermal shift assay (CETSA) in Hep3B cells, FIH; assay type: cell-based; parameters: endogenous in cells; host or cells: Hep3B (SCSP-5045); settings: for ΔTm at 50 µM: Hep3B
Protocol: (§1) To investigate potential cellular target engagement of NBA-ZG-2291 with FIH, we performed a time-dependent cellular thermal shift assay (CETSA) using Hep3B cells. The results imply that, after 30 min of light activation (365 nm, 16 W), NBA-ZG-2291 effectively stabilizes FIH with a ΔT m of about 9 °C after incubation for 12–48 h (Figure A), indicating sustained engagement with FIH. […] We also performed Western blotting to examine the protein levels of both HIF-1α and HIF-2α in control and NBA-ZG-2291-treated Hep3B cells.
5 NBA-ZG-2991 sustainably engages with FIH and regulates the expression of FIH-dependent HIF target gene EGLN3 in Hep3B cells. (A) The CETSA assay was carried out with Hep3B cells grown in the presence of NBA-ZG-2291 (50 μM) for 12–48 h after 30 min of light activation (365 nm, 16 W). The intensity of the bands for grayscale analysis was referenced to the starting temperature (37 °C). α-Actinin was the sample loading control. n = 2; mean ± SD. […] (E) Correlation heatmap of the NBA-ZG-2291-treated group and the siFIH group by RNA-sequencing analysis. […] The relative fold change with respect to DMSO treated sample is shown (with normalization to HPRT gene levels). Mean ± SEM; n = 3. (G) TG level of NBA-ZG-2291-treated 3T3-L1-derived adipocytes. Mean ± SEM; n = 3. (H) Representative Oil Red O-stained images of the control, ZG-2291-treated, and NBA-ZG-2291-treated 3T3-L1-derived adipocytes. Scale Bar, 30 μm. P values were analyzed by two-way ANOVA comparing with the vehicle/control group (*, P < 0.05; **, P < 0.01; ***, P < 0.001, ****, P < 0.0001). See Methods (Quantitative PCR Analysis of Gene Expression) for assay details. […]
Data acquisition was carried out in Full MS mode, positive ion detection, the acquisition time was 10 min, and the scanning range of the mass-to-charge ratio was 400-2000 m/z.
3.5 Dihedral angle scan analysis
Dihedral angle scans were performed using the Gaussion 16 suite11. The original dihedral angles of the isoxazol-5-yl pyridine fragment were set to 0° via Gaussian View 6.0.16 for dihedral scanning from 0° to 360° in 1° increments at the B3LPY-D3(BJ)/6-31+G(d) level of theory. The resulting 360 conformations and the single-point energy for each conformation were extracted.
3.6 Molecular dynamics (MD) simulations
The process of customizing non-standard residues (NBA-ZG-2291 modified Lys106) in the amber14sb force field involved the following steps: First, the molecular structure of NBA-ZG-2291 was obtained and its topology was generated. […]
The RESP charges were fitted using Multiwfn, wherein the optimized structure and ESP data were inputted to perform the restrained electrostatic potential fitting. The obtained RESP charges were subsequently incorporated into the gaff topology generated by Multwfn. […]

HIF-1α and HIF-2α = assay: Western blotting of HIF-1α and HIF-2α protein levels in Hep3B cells; assay type: cell-based
Protocol: as §1

Chain of FIH (Q9NWT6 whole entry): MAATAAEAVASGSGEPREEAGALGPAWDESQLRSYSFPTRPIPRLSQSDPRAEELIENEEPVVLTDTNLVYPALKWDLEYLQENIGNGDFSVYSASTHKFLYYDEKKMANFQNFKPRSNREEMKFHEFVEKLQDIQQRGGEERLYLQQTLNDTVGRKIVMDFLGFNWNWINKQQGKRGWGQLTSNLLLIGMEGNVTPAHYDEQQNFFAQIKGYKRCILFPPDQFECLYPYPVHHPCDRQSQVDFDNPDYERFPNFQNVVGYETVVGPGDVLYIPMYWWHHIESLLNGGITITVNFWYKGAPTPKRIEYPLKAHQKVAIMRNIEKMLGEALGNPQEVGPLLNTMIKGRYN

ΔTm at 50 µM (FIH; incubation 12 h after 30 min light activation (365 nm, 16 W)): 8.87 °C
ΔTm at 50 µM (FIH; incubation 24 h after 30 min light activation (365 nm, 16 W)): 9.28 °C
ΔTm at 50 µM (FIH; incubation 48 h after 30 min light activation (365 nm, 16 W)): 8.86 °C
FIH: ΔTm (FIH; incubation for 12–48 h after 30 min light activation (365 nm, 16 W)): about 9 °C
SMILES: O=C(O)CNC(=O)c1ncc(-c2cc(-c3ccc(CO)c([N+](=O)[O-])c3)no2)cc1O [NBA-ZG-2291]
Protein levels of HIF-1α and HIF-2α (HIF-1α and HIF-2α): did not significantly alter the levels of either HIF-1α or HIF-2α

— PMC12123601, “Light-Induced, Lysine-Targeting Irreversible Covalent Inhibition of the Human Oxygen Sensing Hydroxylase Factor Inhibiting HIF (FIH)” (Journal of the American Chemical Society, 2025)
